Measured values as given in patent US9950007B2, “Neuronal protection by cerium oxide nanoparticles” (UNIVERSITY OF CENTRAL FLORIDA RESEARCH FOUNDATION, INC., priority 2011, dated 2018).
Entries after “also recorded” stand apart in the source; their conditions may differ.

Experiments:
[1] = ONOO^−-mediated APF oxidation in vitro (fluorescence spectroscopy); conditions: ONOO^− 20 μM, fluorescence 515 nm (ex. 490 nm)
Method: To obtain further insight into the ONOO^− scavenging abilities of CeO2 NPs, the yield of oxidized APF was followed by fluorescent spectroscopy using the oxidizable probe, 3′-(p-aminophenyl) fluorescein (APF) as an indicator (FIG. 2B). APF is an aromatic amino-fluorescein derivative that has little intrinsic fluorescence but undergoes oxidation by only hydroxyl radical, hypochlorate ion, and certain peroxidase intermediates such as ONOO^−, but is inert to NO., O2^⋅− and H2O2 (40).
ONOO^− (20 μM) was added to APF along with varying amounts CeO2 NPs. Glutathione (Fisher, Fair Lawn, N.J.) and uric acid (Avocado, Research Chemicals, Ltd.) known scavengers of ONOO^−, were used as positive controls. Fluorescence at 515 nm (ex. 490 nm) was measured using a Varian Cary Eclipse fluorescence spectrophotometer (Palo Alto, Calif.).

[2] = Decay of ONOO^− followed at 302 nm by UV-visible spectroscopy
Method: The decay of ONOO^− was followed in the absence and presence of CeO2 NPs (FIG. 2A and Supplementary FIG. 3: Effect of CeO2 NPs on the rate of decay of ONOO— in vitro varying pH. ONOO— (25 μM) was added at various pH's alone and in the presence of CeO2 NPs (100 μM), SiO2 NPs (100 μM), glutathione (GSH) (0.5 mM). (A) Peroxynitrite absorbance followed at 302 nm in 100 mM sodium phosphate buffer at pH 8.6. (N=4). GSH, known general scavenger and SiO2 NPs were added as positive and negative controls, respectively. Rate of ONOO—(black traces) decomposition was increased with CeO2 NPs (blue traces) in a similar manner of GSH (red traces). Rate of decomposition was not affected by presence of SiO2 NPs (green traces). B) 100 mM sodium phosphate buffer at pH 9.5. (N=3). Rate of ONOO—(black traces) decomposition was increased with CeO2 NPs (blue traces) in a similar manner of GSH (red traces). Absorbance was normalized by subtracting the final absorbance from initial absorbance and dividing by the amplitude. As stock solutions of ONOO— contain 0.3 M NaOH, control incubations were performed with equivalent amounts of NaOH. All in vitro experiments were performed using phosphate buffers containing 1 μM DPTA.). The in vitro assays were repeated using various phosphate buffers while varying the pH's. Since carbon dioxide is known to enhance the rate of ONOO^− decomposition (38), the change in absorbance at 302 nm was followed in potassium phosphate buffer (pH 8.0), which was degassed by argon. […] This change of absorbance in response to addition of CeO2 NPs in these studies also mimics the scavenging seen with glutathione, a known antioxidant that protects cells from free radicals and peroxides (39). […]
UV-visible spectroscopy was used to measure decomposition of ONOO^− in the presence and absence of CeO2 NPs. […] Each sample was analyzed for a total of 600 seconds with a cycle time of 0.5 seconds at a wavelength of 302 nm using buffer containing 100 mM sodium phosphate buffer (pH 9.5-8.0) and 1 μM diethylenetriaminepentaacetic acid (DPTA) with or without CeO2 NPs. […]

[3] = system: DRP1 phosphorylation at S616; test: Western blot of p-DRP1 S616 in neurons; assay type: cell-based, rat; conditions: preaggregated Aβ 25-35 10 μM, 6 h; nanoceria 100 nM or NAC 50 μM, 3 h pretreatment
Method: To measure the levels of p-DRP1 S616, neurons were lysed in buffer containing 50 mM Tris-Cl, pH 7.0, 150 mM NaCl, 1 mM MgCl2, 1 mM NaF, 1 mM NaVO4, 1% NP40, 10% glycerol and complete Protease Inhibitor Cocktail Tablets (Roche Applied Science, US). Membranes were blocked with 5% nonfat milk in TBS (pH 8.0) with 0.05% Tween20 for 3 h at room temperature (RT) and were incubated with primary rabbit polyclonal antibodies for p-DRP1 S616 (Cell Signaling) (1:1000) overnight at 4° C. The membranes were then washed four times (5 min) with TBS (0.05% Tween) and incubated for 2 h at room temperature with anti-rabbit horseradish peroxidase-conjugated secondary antibodies (GE Healthcare)(1:15,000) in blocking solution. After 4 washes (5 min) of TBS (0.05% Tween), immunocomplexes were then detected using the Super-Signal West-Dura or Femto chemiluminescent substrates (Pierce, Thermoscientific, Rockford, Ill.). For re-probing the membranes were stripped with Restore Western Blot Stripping Buffer (Thermo-Scientific) according to the manufacturer and incubated with mouse monoclonal antibodies for DRP1 (BD Biosciences, clone 8/DLP1) (1:1000) antibody or with polyclonal rabbit antibodies for β-actin (Cell Signaling) (1:1000).

[4] = system: cortical neurons; test: Scoring for neuronal cell death under nitrosative stressors; assay type: cell-based, rat; conditions: oligomerized Aβ 25-35 10 μM, 6 h; nanoceria 100 nM or NAC 50 μM, 3 h pretreatment
Method: To assess the neuronal protection capabilities of CeO2 NPs, pure cortical neuronal cultures transfected with DsRed2-Mito were pretreated with CeO2 NPs (100 nM) and subjected to various treatments known to increase RNS. […] Cell death was evaluated by condensed nuclei accompanied by shrunken soma and mitochondrial fragmentation (FIG. 4A center panel).
Cultures were either transfected with DsRed2-Mito on day 5 using LipoFectamine2000® or immunostained for microtubule-associated protein 2 (MAP2) for visualization of processes. Experiments were performed after 11-14 days in vitro (DIV) with 3-NP, glutamate or NMDA. SNOC treated cultures were performed after 8 DIV. Neurons were pretreated with CeO2 NPs for various time points, 3 h, 12 h, 24 h or 72 h. For cultures treated with 3-NP (diluted in EBSS and pH adjusted to 7.4 with NaOH), 3-NP was diluted in individual culture's conditioned medium before exchange and cultures left for 8 h. Brief exposure to NMDA was carried as follows. […] Cells with fragmented mitochondria and condensed chromatin by Hoechst 33342 staining were scored as dead neurons. To evaluate mitochondrial fragmentation and cell death of a large number of neurons, manual scoring was carried out of neurons grown on glass coverslips using conventional fluorescence microscopy. […]

[5] = system: mitochondrial morphology in cortical neurons; test: Mitochondrial fragmentation in neurons expressing DsRed2-Mito; assay type: cell-based, rat; conditions: Aβ 25-35 10 μM, 6 h; nanoceria 100 nM or NAC 50 μM, 3 h pretreatment
Description: To test whether nanoceria would prevent the Aβ-induced mitochondrial fragmentation, the mitochondrial morphology by fluorescence microscopy in neurons expressing DsRed2-Mito, a red fluorescent protein targeted to the mitochondrial matrix was visualized.
Cultures were either transfected with DsRed2-Mito on day 5 using LipoFectamine2000® or immunostained for microtubule-associated protein 2 (MAP2) for visualization of processes. […] For Aβ (25-25) treated cultures, Aβ (25-35) or reverse (35-25) was left to oligomerize for 24 h at 25° C. before adding to cultures at 10 μM for 6 h. Cells were fixed in 3.7% formaldehyde and 5% sucrose in PBS for 20 min at 37° C. […] Cells with fragmented mitochondria and condensed chromatin by Hoechst 33342 staining were scored as dead neurons. To evaluate mitochondrial fragmentation and cell death of a large number of neurons, manual scoring was carried out of neurons grown on glass coverslips using conventional fluorescence microscopy.
Neurons were grown on poly-Lysine coated glass cover slips as described before and transfected with DsRed2-Mito after 5 days in vitro (DIV) using Lipofectamine2000®. […] Quantification of mitochondrial fragmentation and neuronal cell death was performed as described (30). Fluorescence microscopy and image acquisition of mitochondrial morphology was performed as previously described (98).

[6] = cited from earlier work

Question: Which “oxidation of APF by ONOO^−” value [1] does the source give for `N[C@@H](CCC(=O)N[C@@H](CS)C(=O)NCC(=O)O)C(=O)O` [GSH, glutathione] here?
Answer: prevented the oxidation of APF

Question: And the “rate of ONOO^− decomposition” value ([2]; 100 mM sodium phosphate buffer pH 8.6, ONOO^− 25 μM, CeO2 NPs 100 μM, SiO2 NPs 100 μM, GSH 0.5 mM)?
Answer: increased

Question: And the “rate of ONOO^− decomposition” value ([2]; 100 mM sodium phosphate buffer pH 9.5, ONOO^− 25 μM, CeO2 NPs 100 μM, GSH 0.5 mM)?
Answer: increased

Question: With `CC(=O)N[C@@H](CS)C(=O)O` [NAC, N-acetyl-L-cysteine] as the compound, how does the “Aβ 25-35-induced DRP1 S616 phosphorylation” value [3] read?
Answer: abolished

Question: And the “cell viability / cell death after Aβ (25-35)” value [4]?
Answer: relieved; also recorded: reduced

Question: What about the “Aβ25-35-induced mitochondrial fragmentation (fluorescence micrographs)” value [5] of the same compound?
Answer: prevented

Question: What does the source list for `O=c1[nH]c(=O)c2[nH]c(=O)[nH]c2[nH]1` [uric acid]?
Answer: oxidation of APF by ONOO^− [1]: prevented the oxidation of APF; rate of ONOO^− decomposition ([2]; potassium phosphate buffer pH 8.0, degassed by argon, absorbance 302 nm): increased

Question: With nitro-tyrosine as the compound, how does the pKa [6] read?
Answer: 7.4
